Values quoted from earlier work in article PMC9851200, “Multiparameter phenotypic screening for endogenous TFEB and TFE3 translocation identifies novel chemical series modulating lysosome function” (Autophagy, 2022).

Assays:
Parameters in all cases: method as in original PKIS2 published data
[1] = biological target: kinases (KINOMEscan panel) (Homo sapiens, UniProt P27448); settings: MARK3; Published KINOMEscan; ref original PKIS2 published data; cited from earlier work
[2] = biological target: kinases (KINOMEscan panel) (Homo sapiens, UniProt P48736); settings: kinase PIK3CG; Published KINOMEscan; ref original PKIS2 published data; cited from earlier work
Sequence of kinases (KINOMEscan panel) (Homo sapiens, UniProt P48736) (P48736 whole entry): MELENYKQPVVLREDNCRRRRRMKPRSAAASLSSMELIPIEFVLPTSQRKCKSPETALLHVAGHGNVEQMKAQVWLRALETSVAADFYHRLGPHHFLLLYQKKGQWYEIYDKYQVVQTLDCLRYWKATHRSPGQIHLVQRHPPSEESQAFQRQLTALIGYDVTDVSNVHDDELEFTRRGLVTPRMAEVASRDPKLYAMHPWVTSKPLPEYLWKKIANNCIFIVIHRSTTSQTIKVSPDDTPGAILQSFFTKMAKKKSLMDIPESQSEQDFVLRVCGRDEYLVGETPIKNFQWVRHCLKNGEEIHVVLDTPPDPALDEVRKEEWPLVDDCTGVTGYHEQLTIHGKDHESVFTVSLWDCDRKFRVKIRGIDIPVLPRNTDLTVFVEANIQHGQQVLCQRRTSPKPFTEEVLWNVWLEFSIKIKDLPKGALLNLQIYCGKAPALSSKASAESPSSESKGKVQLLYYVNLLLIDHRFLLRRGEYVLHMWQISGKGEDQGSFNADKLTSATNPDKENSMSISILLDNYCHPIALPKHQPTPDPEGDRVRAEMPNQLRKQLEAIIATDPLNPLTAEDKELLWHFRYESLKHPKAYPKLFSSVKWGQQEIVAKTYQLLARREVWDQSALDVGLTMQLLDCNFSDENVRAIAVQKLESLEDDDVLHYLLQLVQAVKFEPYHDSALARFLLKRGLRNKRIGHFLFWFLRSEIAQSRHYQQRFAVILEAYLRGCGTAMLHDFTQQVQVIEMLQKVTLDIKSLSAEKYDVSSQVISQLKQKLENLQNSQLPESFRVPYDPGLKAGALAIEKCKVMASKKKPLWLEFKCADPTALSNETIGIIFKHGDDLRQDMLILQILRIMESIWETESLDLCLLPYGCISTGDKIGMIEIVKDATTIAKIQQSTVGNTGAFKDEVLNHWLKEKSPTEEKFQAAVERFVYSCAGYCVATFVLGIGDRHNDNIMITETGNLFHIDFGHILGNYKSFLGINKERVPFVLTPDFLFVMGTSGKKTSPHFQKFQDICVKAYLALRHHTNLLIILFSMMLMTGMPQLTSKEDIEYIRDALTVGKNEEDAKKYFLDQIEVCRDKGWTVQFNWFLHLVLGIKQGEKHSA

[3] = biological target: T1, kinases (KINOMEscan panel) (Homo sapiens, UniProt P54753); settings: kinase EPHB3; Published KINOMEscan; ref original PKIS2 published data; cited from earlier work
T1 sequence (P54753 34-998): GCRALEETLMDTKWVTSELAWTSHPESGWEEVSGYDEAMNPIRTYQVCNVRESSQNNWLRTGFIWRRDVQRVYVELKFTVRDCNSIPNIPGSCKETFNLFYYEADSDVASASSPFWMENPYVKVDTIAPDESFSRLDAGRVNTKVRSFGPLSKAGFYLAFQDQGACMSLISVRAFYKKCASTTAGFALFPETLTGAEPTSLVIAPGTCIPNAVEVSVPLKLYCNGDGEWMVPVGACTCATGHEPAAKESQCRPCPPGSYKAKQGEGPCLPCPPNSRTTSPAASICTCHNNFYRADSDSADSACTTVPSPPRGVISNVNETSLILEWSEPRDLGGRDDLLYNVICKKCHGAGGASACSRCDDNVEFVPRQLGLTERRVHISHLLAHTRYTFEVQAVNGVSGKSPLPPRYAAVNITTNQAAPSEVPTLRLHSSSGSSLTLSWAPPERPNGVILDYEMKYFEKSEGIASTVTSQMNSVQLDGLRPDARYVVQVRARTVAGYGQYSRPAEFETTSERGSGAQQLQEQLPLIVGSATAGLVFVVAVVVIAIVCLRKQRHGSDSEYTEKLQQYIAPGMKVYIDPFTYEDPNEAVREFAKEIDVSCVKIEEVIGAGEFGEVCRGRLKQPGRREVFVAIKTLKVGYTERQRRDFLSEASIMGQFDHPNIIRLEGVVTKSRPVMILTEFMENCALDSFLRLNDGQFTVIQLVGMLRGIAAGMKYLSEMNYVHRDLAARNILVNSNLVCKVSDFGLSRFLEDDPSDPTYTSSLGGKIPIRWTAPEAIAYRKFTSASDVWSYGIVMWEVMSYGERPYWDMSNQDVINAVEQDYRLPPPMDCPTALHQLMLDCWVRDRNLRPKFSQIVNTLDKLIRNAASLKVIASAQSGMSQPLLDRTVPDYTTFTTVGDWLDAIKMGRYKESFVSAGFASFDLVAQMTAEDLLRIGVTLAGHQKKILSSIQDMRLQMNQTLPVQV

[4] = biological target: kinases (KINOMEscan panel) (Homo sapiens, UniProt Q16512); settings: Published KINOMEscan; ref original PKIS2 published data; cited from earlier work
Sequence of kinases (KINOMEscan panel) (Homo sapiens, UniProt Q16512) (Q16512 whole entry): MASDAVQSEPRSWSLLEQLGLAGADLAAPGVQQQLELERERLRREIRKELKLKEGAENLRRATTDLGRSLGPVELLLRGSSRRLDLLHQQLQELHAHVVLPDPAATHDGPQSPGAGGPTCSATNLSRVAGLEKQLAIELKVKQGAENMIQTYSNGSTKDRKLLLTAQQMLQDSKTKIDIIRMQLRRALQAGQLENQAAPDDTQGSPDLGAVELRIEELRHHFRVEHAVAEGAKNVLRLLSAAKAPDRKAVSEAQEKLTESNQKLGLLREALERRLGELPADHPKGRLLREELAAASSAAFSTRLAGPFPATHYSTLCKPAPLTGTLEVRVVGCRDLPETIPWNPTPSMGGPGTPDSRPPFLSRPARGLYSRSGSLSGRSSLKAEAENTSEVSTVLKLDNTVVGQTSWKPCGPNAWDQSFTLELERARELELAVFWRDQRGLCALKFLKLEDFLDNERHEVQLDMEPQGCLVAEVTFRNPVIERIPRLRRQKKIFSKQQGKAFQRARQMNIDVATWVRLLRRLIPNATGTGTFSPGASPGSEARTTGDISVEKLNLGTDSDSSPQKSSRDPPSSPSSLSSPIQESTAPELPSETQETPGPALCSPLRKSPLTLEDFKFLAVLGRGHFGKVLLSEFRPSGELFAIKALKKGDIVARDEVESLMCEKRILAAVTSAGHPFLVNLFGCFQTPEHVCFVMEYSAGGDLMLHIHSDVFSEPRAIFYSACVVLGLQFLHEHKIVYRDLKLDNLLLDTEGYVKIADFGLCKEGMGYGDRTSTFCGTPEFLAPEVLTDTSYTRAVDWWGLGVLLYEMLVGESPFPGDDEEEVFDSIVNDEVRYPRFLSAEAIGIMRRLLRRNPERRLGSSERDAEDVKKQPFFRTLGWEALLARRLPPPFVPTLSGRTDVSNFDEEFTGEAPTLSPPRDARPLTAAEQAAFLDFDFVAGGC

[5] = biological target: T2, kinases (KINOMEscan panel) (Homo sapiens, UniProt Q86YV6); settings: kinase MYLK4; Published KINOMEscan; ref original PKIS2 published data; cited from earlier work
T2 sequence (Q86YV6 1-388): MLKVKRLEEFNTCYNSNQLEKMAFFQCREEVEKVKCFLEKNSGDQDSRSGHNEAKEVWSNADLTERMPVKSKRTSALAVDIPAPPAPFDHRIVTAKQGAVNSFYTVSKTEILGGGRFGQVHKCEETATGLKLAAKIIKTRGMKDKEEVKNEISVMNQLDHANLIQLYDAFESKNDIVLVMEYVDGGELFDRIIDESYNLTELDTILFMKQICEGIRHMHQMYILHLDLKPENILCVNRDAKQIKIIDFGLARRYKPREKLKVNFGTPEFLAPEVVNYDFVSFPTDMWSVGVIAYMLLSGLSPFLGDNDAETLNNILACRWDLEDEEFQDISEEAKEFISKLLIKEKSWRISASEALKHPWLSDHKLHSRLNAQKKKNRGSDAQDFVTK

[6] = biological target: T3, kinases (KINOMEscan panel) (Homo sapiens, UniProt Q8NE63); settings: kinase HIPK4; Published KINOMEscan; ref original PKIS2 published data; cited from earlier work
T3 sequence (Q8NE63 1-616): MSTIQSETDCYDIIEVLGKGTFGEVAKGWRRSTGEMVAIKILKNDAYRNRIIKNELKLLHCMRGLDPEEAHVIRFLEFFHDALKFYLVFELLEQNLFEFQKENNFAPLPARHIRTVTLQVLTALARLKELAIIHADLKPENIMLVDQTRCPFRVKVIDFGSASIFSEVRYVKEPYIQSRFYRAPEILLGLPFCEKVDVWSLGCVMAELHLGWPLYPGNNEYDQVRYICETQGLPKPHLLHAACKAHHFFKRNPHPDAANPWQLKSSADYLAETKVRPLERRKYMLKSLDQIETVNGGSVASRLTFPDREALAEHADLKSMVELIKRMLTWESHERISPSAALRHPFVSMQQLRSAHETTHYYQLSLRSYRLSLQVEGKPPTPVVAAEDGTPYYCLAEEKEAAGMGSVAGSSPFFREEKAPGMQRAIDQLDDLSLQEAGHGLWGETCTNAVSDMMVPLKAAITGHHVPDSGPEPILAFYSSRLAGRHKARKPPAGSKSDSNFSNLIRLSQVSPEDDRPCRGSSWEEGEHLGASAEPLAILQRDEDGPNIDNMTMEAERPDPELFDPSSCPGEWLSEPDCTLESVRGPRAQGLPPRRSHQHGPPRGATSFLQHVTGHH

[7] = biological target: kinases (KINOMEscan panel) (Homo sapiens, UniProt Q99558); settings: kinase MAP3K14; Published KINOMEscan; ref original PKIS2 published data; cited from earlier work
Sequence of kinases (KINOMEscan panel) (Homo sapiens, UniProt Q99558) (Q99558 whole entry): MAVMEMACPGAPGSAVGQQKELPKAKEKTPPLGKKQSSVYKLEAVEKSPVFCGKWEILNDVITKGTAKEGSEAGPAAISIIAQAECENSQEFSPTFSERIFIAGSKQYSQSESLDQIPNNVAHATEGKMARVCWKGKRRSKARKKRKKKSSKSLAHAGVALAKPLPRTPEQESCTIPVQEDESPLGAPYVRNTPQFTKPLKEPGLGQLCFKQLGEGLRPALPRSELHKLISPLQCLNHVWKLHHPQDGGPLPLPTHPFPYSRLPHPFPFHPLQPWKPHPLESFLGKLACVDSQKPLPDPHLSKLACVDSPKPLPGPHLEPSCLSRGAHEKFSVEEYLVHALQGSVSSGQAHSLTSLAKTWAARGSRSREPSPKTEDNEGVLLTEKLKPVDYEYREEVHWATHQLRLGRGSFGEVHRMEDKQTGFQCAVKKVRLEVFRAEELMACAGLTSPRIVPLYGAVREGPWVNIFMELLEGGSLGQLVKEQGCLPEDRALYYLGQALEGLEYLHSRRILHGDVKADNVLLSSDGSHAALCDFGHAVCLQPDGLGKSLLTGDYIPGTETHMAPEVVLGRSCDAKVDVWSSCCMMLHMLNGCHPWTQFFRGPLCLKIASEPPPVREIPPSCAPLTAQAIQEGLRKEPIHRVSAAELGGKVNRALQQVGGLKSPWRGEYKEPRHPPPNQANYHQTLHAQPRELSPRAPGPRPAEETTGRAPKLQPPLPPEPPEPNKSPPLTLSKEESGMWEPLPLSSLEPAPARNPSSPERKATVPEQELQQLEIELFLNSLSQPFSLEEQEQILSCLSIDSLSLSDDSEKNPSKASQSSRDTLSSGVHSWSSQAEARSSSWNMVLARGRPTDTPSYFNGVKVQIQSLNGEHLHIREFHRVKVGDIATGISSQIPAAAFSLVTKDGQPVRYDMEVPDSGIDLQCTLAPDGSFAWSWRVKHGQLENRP

Sequence of kinases (KINOMEscan panel) (Homo sapiens, UniProt P27448) (P27448 whole entry): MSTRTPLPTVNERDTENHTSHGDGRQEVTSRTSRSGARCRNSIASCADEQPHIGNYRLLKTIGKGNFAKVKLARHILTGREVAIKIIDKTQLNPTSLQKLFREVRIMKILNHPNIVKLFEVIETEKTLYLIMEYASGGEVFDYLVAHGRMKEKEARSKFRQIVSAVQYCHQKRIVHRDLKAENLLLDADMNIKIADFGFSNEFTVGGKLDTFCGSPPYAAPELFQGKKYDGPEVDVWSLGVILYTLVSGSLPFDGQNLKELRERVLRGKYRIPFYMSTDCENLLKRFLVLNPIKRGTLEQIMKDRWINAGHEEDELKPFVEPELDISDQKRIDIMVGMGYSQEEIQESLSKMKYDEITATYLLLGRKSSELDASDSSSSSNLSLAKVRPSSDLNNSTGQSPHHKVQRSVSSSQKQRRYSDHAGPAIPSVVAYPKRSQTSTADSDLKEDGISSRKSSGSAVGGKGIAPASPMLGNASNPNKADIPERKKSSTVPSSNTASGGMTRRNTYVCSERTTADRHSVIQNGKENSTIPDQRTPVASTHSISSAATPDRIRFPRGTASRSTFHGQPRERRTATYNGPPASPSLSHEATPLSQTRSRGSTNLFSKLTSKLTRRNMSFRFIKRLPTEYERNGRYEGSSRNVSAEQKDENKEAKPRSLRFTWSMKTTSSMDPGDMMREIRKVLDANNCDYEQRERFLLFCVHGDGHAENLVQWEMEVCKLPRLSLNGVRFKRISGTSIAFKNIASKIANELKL

Question: With `Cc1cccc(-c2nc(Nc3ccncc3)c3ccccc3n2)n1` [NK215] as the compound, how does the “KINOMEscan MARK3” value [1] read?
Answer: Its value is 32.

Question: And the “KINOMEscan PIK3CG” value [2]?
Answer: Its value is 0.

Question: What about the “KINOMEscan EPHB3” value [3] of the same compound?
Answer: Its value is 11.

Question: And the “KINOMEscan PKN1” value [4]?
Answer: The value was 0.

Question: What about the “KINOMEscan MYLK4” value [5] of the same compound?
Answer: Its value is 7.

Question: What about the “KINOMEscan HIPK4” value [6] of the same compound?
Answer: The value was 19.

Question: What about the “KINOMEscan MAP3K14” value [7] of the same compound?
Answer: The value was 0.
